{
  "source": "ChEMBL document CHEMBL4308862",
  "about": "“Discovery of a novel azetidine scaffold for colony stimulating factor-1 receptor (CSF-1R) Type II inhibitors by the use of docking models” (Bioorg Med Chem Lett, 2019)",
  "biological_target": "Macrophage colony-stimulating factor 1 receptor (Homo sapiens, UniProt P07333)",
  "sequence (P07333 whole entry, the tested form may be a part)": "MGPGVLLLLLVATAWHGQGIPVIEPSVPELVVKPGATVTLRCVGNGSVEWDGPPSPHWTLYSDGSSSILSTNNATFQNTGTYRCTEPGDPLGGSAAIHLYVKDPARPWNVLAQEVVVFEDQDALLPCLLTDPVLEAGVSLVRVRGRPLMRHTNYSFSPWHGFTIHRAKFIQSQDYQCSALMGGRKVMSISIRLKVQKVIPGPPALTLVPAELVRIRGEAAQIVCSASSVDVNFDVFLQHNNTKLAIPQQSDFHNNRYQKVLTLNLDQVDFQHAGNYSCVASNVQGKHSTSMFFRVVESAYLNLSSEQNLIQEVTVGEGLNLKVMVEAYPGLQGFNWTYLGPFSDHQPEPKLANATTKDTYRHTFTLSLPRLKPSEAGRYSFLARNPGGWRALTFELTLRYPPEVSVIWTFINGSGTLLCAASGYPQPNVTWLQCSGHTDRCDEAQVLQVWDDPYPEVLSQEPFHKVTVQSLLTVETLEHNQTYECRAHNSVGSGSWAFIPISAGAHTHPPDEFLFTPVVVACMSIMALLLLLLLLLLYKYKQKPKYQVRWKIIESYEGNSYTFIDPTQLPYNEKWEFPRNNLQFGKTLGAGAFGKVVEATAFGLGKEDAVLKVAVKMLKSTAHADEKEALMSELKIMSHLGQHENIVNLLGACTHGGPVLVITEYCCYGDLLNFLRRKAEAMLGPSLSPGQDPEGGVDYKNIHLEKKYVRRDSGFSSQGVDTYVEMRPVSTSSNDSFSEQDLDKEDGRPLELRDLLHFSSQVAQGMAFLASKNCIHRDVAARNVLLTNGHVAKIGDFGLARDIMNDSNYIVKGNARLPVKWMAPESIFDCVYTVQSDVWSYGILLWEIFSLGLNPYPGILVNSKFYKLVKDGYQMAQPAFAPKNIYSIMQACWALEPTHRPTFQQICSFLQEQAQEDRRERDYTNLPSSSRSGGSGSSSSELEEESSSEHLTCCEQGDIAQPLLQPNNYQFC",
  "assay": "Inhibition of human CSF1R tyrosine kinase domain (538 to 972 residues) using Poly(Glu, Tyr)-biotinylated peptide as substrate preincubated for 5 mins followed by substrate addition and measured after 10 mins by HTRF assay",
  "data": [
    {"compound": "CCc1ccc(COc2ccc(C3CN(Cc4cccnc4)C3)cc2OC)cc1", "values": [
      {"measurement": "IC50", "value": "> 3", "unit": "µM"}
    ]},
    {"compound": "CCc1ccc(COc2ccc(C3CN(c4ccccn4)C3)cc2OC)cc1", "values": [
      {"measurement": "IC50", "value": "> 3", "unit": "µM"}
    ]},
    {"compound": "CCc1ccc(COc2ccc(C3CN(Cc4ccccn4)C3)cc2OC)cc1", "values": [
      {"measurement": "IC50", "value": "> 3", "unit": "µM"}
    ]}
  ]
}
